Assay results as given in patent US20240208992A1, “MACROCYCLES AS CFTR MODULATORS” (Idorsia Pharmaceuticals Ltd, priority 2021, published 2024).

Target: human F508del-CFTR (Homo sapiens, UniProt P13569, DEL508-508)
Assay: F508del-CFTR cell surface expression (corrector activity), DiscoveRx ß-galactosidase complementation chemiluminescence assay in recombinant U2OS cell line;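 note: U2OS cells co-expressing ProLink-tagged F508del-CFTR and a membrane-anchored enzyme acceptor, where more surface CFTR restores β-galactosidase activity measured by chemiluminescence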
Conditions: for EC50: EC50, F508del-CFTR cell surface expression, U2OS cells, 16h compound incubation, geomean values; for Emax: U2OS, in relation to Emax of corrector lumacaftor (=100%), arithmetic mean values

human F508del-CFTR, sequence (P13569 with tags, fused parts or gaps DEL508-508): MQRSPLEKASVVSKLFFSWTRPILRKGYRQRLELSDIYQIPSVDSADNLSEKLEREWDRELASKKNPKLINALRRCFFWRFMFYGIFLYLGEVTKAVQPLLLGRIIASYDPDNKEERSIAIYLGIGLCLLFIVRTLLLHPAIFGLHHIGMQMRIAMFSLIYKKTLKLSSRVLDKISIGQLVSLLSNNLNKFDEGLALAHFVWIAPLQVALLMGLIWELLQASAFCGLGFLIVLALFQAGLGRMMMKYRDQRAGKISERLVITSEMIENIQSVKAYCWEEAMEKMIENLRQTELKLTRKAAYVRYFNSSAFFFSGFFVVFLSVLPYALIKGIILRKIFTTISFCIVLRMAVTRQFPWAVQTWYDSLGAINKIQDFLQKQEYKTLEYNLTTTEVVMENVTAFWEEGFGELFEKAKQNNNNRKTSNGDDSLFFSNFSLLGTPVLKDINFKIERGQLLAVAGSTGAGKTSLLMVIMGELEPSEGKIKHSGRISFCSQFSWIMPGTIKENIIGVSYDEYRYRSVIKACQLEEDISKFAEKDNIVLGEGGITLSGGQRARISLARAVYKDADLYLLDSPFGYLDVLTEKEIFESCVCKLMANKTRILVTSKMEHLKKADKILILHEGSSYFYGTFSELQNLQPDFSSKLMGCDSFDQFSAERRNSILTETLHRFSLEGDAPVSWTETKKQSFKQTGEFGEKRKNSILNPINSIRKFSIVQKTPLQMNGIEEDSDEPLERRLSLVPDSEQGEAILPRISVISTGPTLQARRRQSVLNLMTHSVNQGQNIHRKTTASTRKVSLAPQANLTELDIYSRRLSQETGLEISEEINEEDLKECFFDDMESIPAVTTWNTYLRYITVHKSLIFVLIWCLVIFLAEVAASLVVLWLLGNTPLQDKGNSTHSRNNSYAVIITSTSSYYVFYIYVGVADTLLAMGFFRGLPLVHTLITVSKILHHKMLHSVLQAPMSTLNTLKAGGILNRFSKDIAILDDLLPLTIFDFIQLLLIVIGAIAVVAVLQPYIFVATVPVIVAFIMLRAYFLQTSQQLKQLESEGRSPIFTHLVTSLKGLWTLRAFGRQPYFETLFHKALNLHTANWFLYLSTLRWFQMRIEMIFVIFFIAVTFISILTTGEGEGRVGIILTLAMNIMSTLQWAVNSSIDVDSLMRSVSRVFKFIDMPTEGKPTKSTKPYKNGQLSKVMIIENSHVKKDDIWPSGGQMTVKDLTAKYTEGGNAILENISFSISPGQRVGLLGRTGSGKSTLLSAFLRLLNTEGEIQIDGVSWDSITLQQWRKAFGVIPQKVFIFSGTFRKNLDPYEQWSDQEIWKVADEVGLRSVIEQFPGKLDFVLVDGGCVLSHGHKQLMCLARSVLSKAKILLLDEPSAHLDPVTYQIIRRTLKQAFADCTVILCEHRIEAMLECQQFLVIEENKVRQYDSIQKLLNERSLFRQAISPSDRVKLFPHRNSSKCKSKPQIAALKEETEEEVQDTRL

Row | Structure (SMILES) | EC50 | Emax
1 | COc1cccc(CCNC(=O)[C@@H]2CC(=O)N(C)[C@@H](CC(C)C)C(=O)N3CCN(C(=O)c4cnccn4)C[C@@H]3C(=O)N[C@H](Cc3ccccc3)COc3ccc4ccccc4c3C(=O)N2)c1 [Example 753, (4aR,7R,18S,22S)-7-benzyl-22-isobutyl-N-(3-methoxyphenethyl)-21-methyl-5,16,20,23-tetraoxo-3-(pyrazine-2-carbonyl)-2,3,4,4a,5,6,7,8,16,17,18,19,20,21,22,23-hexadecahydro-1H-naphtho[1,2-p]pyrazino[2,1-f][1]oxa[4,7,10,14]tetraazacycloheptadecine-18-carboxamide] | 430 nM | 264%
2 | COC(=O)N1CCN2C(=O)[C@H](CC(C)C)N(C)C(=O)C[C@@H](C(=O)NCCc3cccc(OC)c3)NC(=O)c3c(ccc4ccccc34)OC[C@@H](Cc3ccccc3)NC(=O)[C@H]2C1 [Example 754, Methyl (4aR,7R,18S,22S)-7-benzyl-22-isobutyl-18-((3-methoxyphenethyl)carbamoyl)-21-methyl-5,16,20,23-tetraoxo-1,2,4,4a,5,6,7,8,16,17,18,19,20,21,22,23-hexadecahydro-3H-naphtho[1,2-p]pyrazino[2,1-f][1]oxa[4,7,10,14]tetraazacycloheptadecine-3-carboxylate] | 219 nM | 279%
3 | CCOC(=O)N1CCN2C(=O)[C@H](CC(C)C)N(C)C(=O)C[C@@H](C(=O)NCCc3cccc(OC)c3)NC(=O)c3c(ccc4ccccc34)OC[C@@H](Cc3ccccc3)NC(=O)[C@H]2C1 [Example 755, ethyl (4aR,7R,18S,22S)-7-benzyl-22-isobutyl-18-((3-methoxyphenethyl)carbamoyl)-21-methyl-5,16,20,23-tetraoxo-1,2,4,4a,5,6,7,8,16,17,18,19,20,21,22,23-hexadecahydro-3H-naphtho[1,2-p]pyrazino[2,1-f][1]oxa[4,7,10,14]tetraazacycloheptadecine-3-carboxylate] | 168 nM | 270%
4 | COc1cccc(CCNC(=O)[C@@H]2CC(=O)N(C)[C@@H](CC(C)C)C(=O)N3CCN(C(=O)OC4CCOCC4)C[C@@H]3C(=O)N[C@H](Cc3ccccc3)COc3ccc4ccccc4c3C(=O)N2)c1 [Example 756, Tetrahydro-2H-pyran-4-yl (4aR,7R,18S,22S)-7-benzyl-22-isobutyl-18-((3-methoxyphenethyl)carbamoyl)-21-methyl-5,16,20,23-tetraoxo-1,2,4,4a,5,6,7,8,16,17,18,19,20,21,22,23-hexadecahydro-3H-naphtho[1,2-p]pyrazino[2,1-f][1]oxa[4,7,10,14]tetraazacycloheptadecine-3-carboxylate] | 311 nM | 252%
5 | COc1cccc(CCNC(=O)[C@@H]2CC(=O)N(C)[C@@H](CC(C)C)C(=O)N3CCN([S@](=O)(=NC(=O)OC(C)(C)C)c4ccccc4)C[C@@H]3C(=O)N[C@H](Cc3ccccc3)COc3ccc4ccccc4c3C(=O)N2)c1 [Example 757, tert-Butyl (((4aR,7R,18S,22S)-7-benzyl-22-isobutyl-18-((3-methoxyphenethyl)carbamoyl)-21-methyl-5,16,20,23-tetraoxo-1,2,4,4a,5,6,7,8,16,17,18,19,20,21,22,23-hexadecahydro-3H-naphtho[1,2-p]pyrazino[2,1-f][1]oxa[4,7,10,14]tetraazacycloheptadecin-3-yl)(oxo)(phenyl)-16-sulfaneylidene)carbamate] | 145 nM | 280%
6 | COc1cccc(CCNC(=O)[C@@H]2CC(=O)N(C)[C@@H](CC(C)C)C(=O)N3CCN([S@@](=N)(=O)c4ccccc4)C[C@@H]3C(=O)N[C@H](Cc3ccccc3)COc3ccc4ccccc4c3C(=O)N2)c1 [Example 758, (4aR,7R,18S,22S)-7-Benzyl-22-isobutyl-N-(3-methoxyphenethyl)-21-methyl-5,16,20,23-tetraoxo-3-(phenylsulfonimidoyl)-2,3,4,4a,5,6,7,8,16,17,18,19,20,21,22,23-hexadecahydro-1H-naphtho[1,2-p]pyrazino[2,1-f][1]oxa[4,7,10,14]tetraazacycloheptadecine-18-carboxamide] | 334 nM | 266%
7 | CC(C)C[C@H]1C(=O)N2CCOC[C@@H]2C(=O)N[C@H](Cc2ccccc2)COc2ccc3ccccc3c2C(=O)N[C@H](C(=O)NCCc2cccc(C#N)c2)CC(=O)N1C [Example 759, (4aR,7R,18S,22S)-7-Benzyl-N-(3-cyanophenethyl)-22-isobutyl-21-methyl-5,16,20,23-tetraoxo-1,2,4,4a,5,6,7,8,16,17,18,19,20,21,22,23-hexadecahydronaphtho[1,2-p][1,4]oxazino[3,4-f][1]oxa[4,7,10,14]tetraazacycloheptadecine-18-carboxamide] | 296 nM | 131%
8 | COc1cccc(CCNC(=O)[C@@H]2CC(=O)N(C)[C@@H](CC(C)C)C(=O)N3CCCC[C@@H]3C(=O)N[C@H](Cc3ccccc3)COc3c[n+]([O-])c4ccccc4c3C(=O)N2)c1 [Example 760, (9S,13S,19aR,22R)-22-Benzyl-13-isobutyl-9-((3-methoxyphenethyl)carbamoyl)-12-methyl-7,11,14,20-tetraoxo-7,8,9,10,11,12,13,14,17,18,19,19a,20,21,22,23-hexadecahydro-16H-pyrido[2′,1′:6,7][1]oxa[4,7,10,14]tetraazacycloheptadecino[17,16-c]quinoline 2-oxide] | 723 nM | 333%
9 | Cc1nc2ccc3c(c2o1)C(=O)N[C@H](C(=O)NCCc1cc(-c2ccccc2)no1)CC(=O)N(C)[C@@H](CC(C)C)C(=O)N(C)C1(CC1)C(=O)N[C@H](Cc1ccccc1)CO3 [Example 761, (8′R,14'S,18'S)-8′-Benzyl-14′-isobutyl-2′,12′,15′-trimethyl-10′,13′,16′,20′-tetraoxo-N-(2-(3-phenylisoxazol-5-yl)ethyl)-7′,8′,9′,10′,13′,14′,15′,16′,17′,18′,19′,20′-dodecahydro-12′H-spiro[cyclopropane-1,11′-oxazolo[4′,5′:5,6]benzo[1,2-p][1]oxa[4,7,10,14]tetraazacycloheptadecine]-18′-carboxamide] | 676 nM | 202%
10 | Cc1nc2ccc3c(c2o1)C(=O)N[C@H](C(=O)NCCc1cc(C(C)C)no1)CC(=O)N(C)[C@@H](CC(C)C)C(=O)N(C)C1(CC1)C(=O)N[C@H](Cc1ccccc1)CO3 [Example 762, (8′R,14'S,18'S)-8′-Benzyl-14′-isobutyl-N-(2-(3-isopropylisoxazol-5-yl)ethyl)-2′,12′,15′-trimethyl-10′,13′,16′,20′-tetraoxo-7′,8′,9′,10′,13′,14′,15′,16′,17′,18′,19′,20′-dodecahydro-12′H-spiro[cyclopropane-1,11′-oxazolo[4′,5′:5,6]benzo[1,2-p][1]oxa[4,7,10,14]tetraazacycloheptadecine]-18′-carboxamide] | 929 nM | 333%
11 | CC(C)C[C@H]1C(=O)N(C)C2(CC2)C(=O)N[C@H](Cc2ccccc2)COc2cnc3ccccc3c2C(=O)N[C@H](C(=O)NCCc2nc(Cc3ccccc3)no2)CC(=O)N1C [Example 763, (3'S,7'S,13′R)-13′-Benzyl-N-(2-(3-benzyl-1,2,4-oxadiazol-5-yl)ethyl)-7′-isobutyl-6′,9′-dimethyl-1′,5′,8′,11′-tetraoxo-2′,3′,4′,5′,6′,7′,8′,9′,11′,12′,13′,14′-dodecahydro-1′H-spiro[cyclopropane-1,10′-[1]oxa[4,7,10,14]tetraazacycloheptadecino[17,16-c]quinoline]-3′-carboxamide] | 264 nM | 181%
12 | CC(C)C[C@H]1C(=O)N(C)C2(CC2)C(=O)N[C@H](Cc2ccccc2)COc2cnc3ccccc3c2C(=O)N[C@H](C(=O)NCCc2nc(CC3CC3)no2)CC(=O)N1C [Example 764, (3'S,7'S,13′R)-13′-Benzyl-N-(2-(3-(cyclopropylmethyl)-1,2,4-oxadiazol-5-yl)ethyl)-7′-isobutyl-6′,9′-dimethyl-1′,5′,8′,11′-tetraoxo-2′,3′,4′,5′,6′,7′,8′,9′,11′,12′,13′,14′-dodecahydro-1′H-spiro[cyclopropane-1,10′-[1]oxa[4,7,10,14]tetraazacycloheptadecino[17,16-c]quinoline]-3′-carboxamide] | 374 nM | 315%
13 | COc1noc(CCNC(=O)[C@@H]2CC(=O)N(C)[C@@H](CC(C)C)C(=O)N(C)[C@H](C)C(=O)N[C@H](Cc3ccccc3)COc3ccnc(OC)c3C(=O)N2)c1F [Example 765, (3R,6R,9S,13S)-3-benzyl-N-(2-(4-fluoro-3-methoxyisoxazol-5-yl)ethyl)-9-isobutyl-16-methoxy-6,7,10-trimethyl-5,8,11,15-tetraoxo-2,3,4,5,6,7,8,9,10,11,12,13,14,15-tetradecahydropyrido[3,4-p][1]oxa[4,7,10,14]tetraazacycloheptadecine-13-carboxamide] | 300 nM | 323%
14 | COc1noc(CCNC(=O)[C@@H]2CC(=O)N(C)[C@@H](CC(C)C)C(=O)N3CCCC[C@@H]3C(=O)N[C@H](Cc3ccccc3)COc3cc(C)nc(OC)c3C(=O)N2)c1F [Example 766, (7S,11S,17aR,20R)-20-benzyl-N-(2-(4-fluoro-3-methoxyisoxazol-5-yl)ethyl)-11-isobutyl-4-methoxy-2,10-dimethyl-5,9,12,18-tetraoxo-5,6,7,8,9,10,11,12,15,16,17,17a,18,19,20,21-hexadecahydro-14H-dipyrido[2,1-f:3′,4′-p][1]oxa[4,7,10,14]tetraazacycloheptadecine-7-carboxamide] | 154 nM | 393%
15 | COc1noc(CCNC(=O)[C@@H]2CC(=O)N(C)[C@@H](CC(C)C)C(=O)N3CCCC[C@@H]3C(=O)N[C@H](Cc3ccccc3)COc3ccnc(OC)c3C(=O)N2)c1F [Example 767, (7S,11S,17aR,20R)-20-benzyl-N-(2-(4-fluoro-3-methoxyisoxazol-5-yl)ethyl)-11-isobutyl-4-methoxy-10-methyl-5,9,12,18-tetraoxo-5,6,7,8,9,10,11,12,15,16,17,17a,18,19,20,21-hexadecahydro-14H-dipyrido[2,1-f:3′,4′-p][1]oxa[4,7,10,14]tetraazacycloheptadecine-7-carboxamide] | 212 nM | 390%
